Measured values from patent publication US20210094899A1, “ACRYLIC ACID ANALOGS” (Recurium IP Holdings, LLC, priority 2017, published 2021).

Tests used:
[1] = target: T1, ESR1 protein (estrogen receptor alpha) (Homo sapiens, UniProt P03372); assay: ER degradation determination by Western blot in MCF-7 cells; assay type: cell-based; conditions: 10 μM, 18-24 hours
T1 construct: After incubating cells with the indicated compounds for 18-24 hours, cell lysates were prepared; endogenous in cells; host or cells: MCF-7
T1 sequence (P03372 1-595): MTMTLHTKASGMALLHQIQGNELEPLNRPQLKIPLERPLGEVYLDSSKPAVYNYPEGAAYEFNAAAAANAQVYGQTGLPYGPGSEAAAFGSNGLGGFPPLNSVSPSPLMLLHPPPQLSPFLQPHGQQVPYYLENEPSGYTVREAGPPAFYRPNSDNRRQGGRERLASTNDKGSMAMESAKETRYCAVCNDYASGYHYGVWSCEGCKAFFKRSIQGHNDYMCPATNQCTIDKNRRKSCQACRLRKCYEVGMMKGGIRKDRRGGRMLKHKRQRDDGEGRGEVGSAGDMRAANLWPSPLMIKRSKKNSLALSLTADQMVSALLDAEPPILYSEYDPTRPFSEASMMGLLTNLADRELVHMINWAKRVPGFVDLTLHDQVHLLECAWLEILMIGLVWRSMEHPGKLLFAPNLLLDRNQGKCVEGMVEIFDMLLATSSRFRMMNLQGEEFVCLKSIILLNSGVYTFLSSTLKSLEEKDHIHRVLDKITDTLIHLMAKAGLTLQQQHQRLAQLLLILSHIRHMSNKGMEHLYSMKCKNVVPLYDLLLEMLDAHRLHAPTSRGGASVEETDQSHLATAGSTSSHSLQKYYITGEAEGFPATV
Description: ER Degradation Determination by Western Blot
MCF-7 cells were plated at 0.3 million cells/mL (3 mL/well) in 6-well plates in experiment media and incubated at 37° C., 5% CO2 for 48 hours. A 10× solution of compounds were made in DMSO and added the solution to the cells to achieve a final concentration of 10 μM. A DMSO control was included to enable a determination of the relative efficacy of test compounds. […] After incubating cells with the indicated compounds for 18-24 hours, cell lysates were prepared (2× Cell lysis buffer: 100 mM Tris, pH 8, 300 mM NaCl, 2% NP40, 1% Na deoxycholate, 0.04% SDS and 2 mM EDTA) and mixed thoroughly and incubated on ice. The protein concentration was quantified using BCA kit. […] The gel was then transferred onto a nitrocellulose membrane. […] GAPDH protein was used as an internal control.

[2] = test system: MCF7 cells; assay: Breast cancer cell proliferation assay (MCF-7), Cell Titer-Glo; assay type: cell-based; conditions: Homo sapiens, 120 h, 5 days of compound exposure
Description: Breast Cancer Cell Proliferation Assay (MCF-7)
MCF7 cells were expanded and maintained in DMEM (Hyclone SH30272.01, Phenol red free) with NEAA (Gibco11140-050), Na-pyruvate (Gibco 11360-070) and Re-stripped Charcoal stripped FBS (Gemini 100-119)). The cells were adjusted to a concentration of 3,000 cells per mL and incubated (37° C., 5% CO2). The following day a 10 point, serial dilution of compounds was added to the cells at a final concentration ranging from 10 μM to 0.000005 μM for test compounds (17β-estradiol was used as a control). Additional cells were plated in 30 wells to serve as the day 1 (pretreatment) comparison. After 5 days of compound exposure, Cell Titer-Glo reagent was added to the cells and the relative luminescence units (RLUs) of each well was determined Cell Titer-Glo was also added to 32 μL of medium without cells to obtain a background value. The plates were allowed to incubate at room temperature for 10 minutes to stabilize luminescent signal and the luminescence signal was recorded with EnSpire. The relative increase in cell number of each sample is determined as follows: (RLU sample-RLU background/RLU estrogen only treated cells-RLU background)×100=[…].

[3] = target: T2, estrogen receptor (Homo sapiens, UniProt P03372); conditions: 500 mg monthly dose; cited from earlier work
T2 sequence (P03372 1-595): T1 sequence (P03372 1-595)

[4] = Pharmacokinetic determination in mice; assay type: in vivo, female CD mice; conditions: mouse
Description: (§1) Pharmacokinetic Determination
(§2) Grouping female CD mice weighing 20-30 g or female SD rats weighing 200-300 g randomly to two groups; one group was administered with test compound at a dose of 3.0 mg/kg by intravenous injection, the other group was administered with test compound at a dose of 10.0 mg/kg orally. The formulation for IV groups were DMSO/PEG400/150 mM glycine (pH 9) (5/10/85) and the formulation for PO groups were PEG400/PVP/Tween 80/0.5% CMC in water (9/0.5/0.5/90). After administering, blood samples of intravenous injection group were collected at time points of predose, 0.0833, 0.25, 0.5, 1, 2, 4, 8, 12 and 24 h; blood samples of oral group were collected at time points of predose, 0.25, 0.5, 1, 2, 4, 8, 12, and 24 h. Standard curve was plotted based on concentrations of the samples in a suitable range, the concentrations of test compounds in plasma samples were determined by using LC-MS/MS. Pharmacokinetic parameters were calculated according to drug concentration-time curve using a noncompartmental method by WinNonLin (Phoenix™, version 6.1) or other similar software.

[5] = Pharmacokinetic determination in rats; assay type: in vivo, female SD rats; conditions: rat
Description: as §1, §2

[6] = target: T3, ERα (ESR1 protein) (Homo sapiens, UniProt P03372); assay: ERα EC50 determination (Western blot band density, MCF-7 cells); assay type: cell-based; conditions: 18-24 hours, ERα degradation
T3 construct: After incubating cells with the indicated compounds for 18-24 hours, cell lysates were prepared; endogenous in cells; host or cells: MCF-7
T3 sequence (P03372 1-595): T1 sequence (P03372 1-595)
Description: A DMSO control was included to enable a determination of the relative efficacy of test compounds. […] The protein concentration was quantified using BCA kit.

[7] = female, CD, plasma, IV, 3.0 mg/kg
[8] = female, CD, plasma, PO, 10.0 mg/kg
[9] = female, SD, plasma, IV, 3.0 mg/kg
[10] = female, SD, plasma, PO, 10.0 mg/kg

C[C@@H]1Cc2c([nH]c3ccccc23)[C@@H](c2c(F)cc(/C=C/C(=O)O)cc2F)N1CC(C)(C)F [AZD9496]
ERα % degradation [1]: A (ERα % degradation ≥ 80%)
IC50 [2]: ≤ 0.025 µM

C[C@]12CC[C@@H]3c4ccc(O)cc4C[C@@H](CCCCCCCCC[S+]([O-])CCCC(F)(F)C(F)(F)F)[C@H]3[C@@H]1CC[C@@H]2O (stereo partly drawn) [fulvestrant]
ERα % degradation [1]: A (ERα % degradation ≥ 80%)
IC50 [2]: ≤ 0.025 µM
turnover of the receptor in patient samples [3]: less than 50%

CC/C(=C(/c1ccc(/C=C/C(=O)O)cc1)c1ccc2[nH]ncc2c1)c1ccc(F)cc1Cl [ARN810]
IC50 [2]: ≤ 0.025 µM

CC/C(=C(\c1ccc(O)cc1)c1ccc(/C=C/C(=O)O)cc1)c1ccc(F)cc1Cl [Example 1, (E)-3-(4-((E)-2-(2-chloro-4-fluorophenyl)-1-(4-hydroxyphenyl)but-1-en-1-yl)phenyl)acrylic acid]
ERα % degradation [1]: B (ERα % degradation < 80%)
AUC(0-inf) [4, 7]: 2.4 µM·h
clearance [4, 7]: 2.98 L/h/kg
half-life [4, 7]: 3.9 h
Vd ([4]; female, CD, plasma, IV, 3.0 mg/kg, read-out: Vdss): 6 L/kg
AUC(0-inf) [4, 8]: 7 µM·h
Cmax [4, 8]: 2.5 µM
Tmax [4, 8]: 0.25 h
half-life [4, 8]: 3.4 h
F ([4]; PO, 10.0 mg/kg): 88%
IC50 [2]: ≤ 0.025 µM
AUC(0-inf) [5, 9]: 6.3 µM·h
clearance [5, 9]: 1.14 L/h/kg
half-life [5, 9]: 3.9 h
Vd ([5]; female, SD, plasma, IV, 3.0 mg/kg, read-out: Vdss): 2.9 L/kg
AUC(0-inf) [5, 10]: 11.1 µM·h
Cmax [5, 10]: 5.7 µM
Tmax [5, 10]: 0.5 h
half-life [5, 10]: 8 h
F ([5]; PO, 10.0 mg/kg): 53%
EC50 [6]: < 0.025 µM
